In PubChem BioAssay AID1745844 (Carcinogenic Potency Database (CPDB), 2022):
Active and inactive are the calls of the source. The rule behind the calls is not given here.

Tested on: rodent lifetime carcinogenesis bioassay, tumor incidence TD50
Assay: carcinogenic potency in animals, long-term in vivo studies, CPDB compilation (AID 1745844)
Conditions: for carcinogen call: strain Swiss/H/Riop, dosed 52 weeks

For `Clc1cc2c(cc1Cl)Oc1cc(Cl)c(Cl)cc1O2`, which TD50 (mouse, strain B6C3F1, females, by gavage, site: all sites, lesion: leukemia + lymphoma, dosed 104 weeks, study length 104 weeks) is on record?
Its TD50 is 0.000709 mg/kg/day.

And the TD50 (mouse, strain B6C3F1, females, by gavage, site: all sites, lesion: lymphoma, histiocytic type, dosed 104 weeks, study length 104 weeks)?
The TD50 was 0.000705 mg/kg/day.

And the TD50 (mouse, strain B6C3F1, females, by gavage, site: all sites, lesion: lymphoma, dosed 104 weeks, study length 104 weeks)?
Its TD50 is 0.000682 mg/kg/day.

What about the TD50 (mouse, strain B6C3F1, females, by gavage, site: any site (literature study), lesion: several types, types named in the paper, dosed 104 weeks, study length 104 weeks) of the same compound?
The TD50 was 0.000494 mg/kg/day.

And the TD50 (mouse, strain B6C3F1, females, by gavage, site: liver + thyroid gland, lesion: hepatocellular adenoma + hepatocellular carcinoma + follicular-cell adenoma, dosed 104 weeks, study length 104 weeks)?
Its TD50 is 0.000526 mg/kg/day.

What about the TD50 (mouse, strain B6C3F1, females, by gavage, site: liver, lesion: hepatocellular adenoma + hepatocellular carcinoma + neoplastic nodule, dosed 104 weeks, study length 104 weeks) of the same compound?
The TD50 was 0.000756 mg/kg/day.

And the TD50 (mouse, strain B6C3F1, females, by gavage, site: liver, lesion: hepatocellular adenoma + hepatocellular carcinoma, dosed 104 weeks, study length 104 weeks)?
Its TD50 is 0.000756 mg/kg/day.

What about the TD50 (mouse, strain B6C3F1, females, by gavage, site: liver, lesion: hepatocellular carcinoma, dosed 104 weeks, study length 104 weeks) of the same compound?
Its TD50 is 0.0013 mg/kg/day.

And the TD50 (mouse, strain B6C3F1, females, by gavage, site: subcutaneous tissue, lesion: fibrosarcoma, dosed 104 weeks, study length 104 weeks)?
The TD50 was 0.00172 mg/kg/day.

What about the TD50 (mouse, strain B6C3F1, females, by gavage, site: thyroid gland, lesion: follicular-cell adenoma, dosed 104 weeks, study length 104 weeks) of the same compound?
The TD50 was 0.00159 mg/kg/day.

And the TD50 (mouse, strain B6C3F1, males, by gavage, site: any site (literature study), lesion: several types, types named in the paper, dosed 104 weeks, study length 104 weeks)?
The TD50 was 0.000141 mg/kg/day.

What about the TD50 (mouse, strain B6C3F1, males, by gavage, site: liver, lesion: hepatocellular adenoma + hepatocellular carcinoma + neoplastic nodule, dosed 104 weeks, study length 104 weeks) of the same compound?
The TD50 was 8.68e-05 mg/kg/day.

And the TD50 (mouse, strain B6C3F1, males, by gavage, site: liver, lesion: hepatocellular adenoma + hepatocellular carcinoma, dosed 104 weeks, study length 104 weeks)?
Its TD50 is 8.68e-05 mg/kg/day.

And the TD50 (mouse, strain B6C3F1, males, by gavage, site: liver, lesion: hepatocellular adenoma, dosed 104 weeks, study length 104 weeks)?
Its TD50 is 0.000271 mg/kg/day.

What about the TD50 (mouse, strain B6C3F1, males, by gavage, site: liver, lesion: hepatocellular carcinoma, dosed 104 weeks, study length 104 weeks) of the same compound?
The TD50 was 0.000147 mg/kg/day.

And the TD50 (mouse, strain B6C3F1, males, by gavage, site: lung, lesion: alveolar/bronchiolar adenoma + alveolar/bronchiolar carcinoma, dosed 104 weeks, study length 104 weeks)?
Its TD50 is 0.000198 mg/kg/day.

And the TD50 (mouse, strain B6C3F1, males, by gavage, site: lung, lesion: alveolar/bronchiolar adenoma, dosed 104 weeks, study length 104 weeks)?
Its TD50 is 0.000219 mg/kg/day.

And the carcinogen call (mouse, males, by gavage, site: liver, lesion: several types, types named in the paper, study length 104 weeks)?
The carcinogen call was “positive”.

What about the carcinogen call (mouse, males, by gavage, site: lung, lesion: one or several types, types not named, study length 104 weeks) of the same compound?
The carcinogen call was “negative (inactive)”.

And the TD50 (rat, strain Osborne-Mendel, females, by gavage, site: any site (literature study), lesion: several types, types named in the paper, dosed 104 weeks, study length 105 weeks)?
Its TD50 is 0.00158 mg/kg/day.

What about the TD50 (rat, strain Osborne-Mendel, females, by gavage, site: liver, lesion: hepatocellular adenoma + hepatocellular carcinoma + neoplastic nodule, dosed 104 weeks, study length 105 weeks) of the same compound?
Its TD50 is 0.000127 mg/kg/day.

And the TD50 (rat, strain Osborne-Mendel, females, by gavage, site: liver, lesion: hepatocellular carcinoma + neoplastic nodule, dosed 104 weeks, study length 105 weeks)?
Its TD50 is 0.000127 mg/kg/day.

And the TD50 (rat, strain Osborne-Mendel, females, by gavage, site: liver, lesion: neoplastic nodule, dosed 104 weeks, study length 105 weeks)?
Its TD50 is 0.000154 mg/kg/day.

And the TD50 (rat, strain Osborne-Mendel, males, by gavage, site: adrenal gland, lesion: cortical adenoma, dosed 104 weeks, study length 105 weeks)?
Its TD50 is 1.21e-05 mg/kg/day.

And the TD50 (rat, strain Osborne-Mendel, males, by gavage, site: any site (literature study), lesion: several types, types named in the paper, dosed 104 weeks, study length 105 weeks)?
Its TD50 is 0.000133 mg/kg/day.

And the TD50 (rat, strain Osborne-Mendel, males, by gavage, site: liver, lesion: hepatocellular adenoma + hepatocellular carcinoma + neoplastic nodule, dosed 104 weeks, study length 105 weeks)?
The TD50 was 0.000391 mg/kg/day.

What about the TD50 (rat, strain Osborne-Mendel, males, by gavage, site: liver, lesion: hepatocellular carcinoma + neoplastic nodule, dosed 104 weeks, study length 105 weeks) of the same compound?
The TD50 was 0.000391 mg/kg/day.

And the TD50 (rat, strain Osborne-Mendel, males, by gavage, site: liver, lesion: neoplastic nodule, dosed 104 weeks, study length 105 weeks)?
The TD50 was 0.000391 mg/kg/day.

And the TD50 (rat, strain Osborne-Mendel, males, by gavage, site: subcutaneous tissue, lesion: fibroma, dosed 104 weeks, study length 105 weeks)?
Its TD50 is 0.000169 mg/kg/day.

What about the TD50 (rat, strain Osborne-Mendel, males, by gavage, site: thyroid gland, lesion: follicular-cell adenoma + follicular-cell carcinoma, dosed 104 weeks, study length 105 weeks) of the same compound?
Its TD50 is 0.000101 mg/kg/day.

And the TD50 (rat, strain Osborne-Mendel, males, by gavage, site: thyroid gland, lesion: follicular-cell adenoma, dosed 104 weeks, study length 105 weeks)?
Its TD50 is 0.000113 mg/kg/day.

What about the TD50 (rat, strain Sprague-Dawley Spartan, females, in feed, site: hard palate/nasal turbinates, lesion: squamous-cell carcinoma, stratified, dosed 103 weeks, study length 103 weeks) of the same compound?
The TD50 was 0.000205 mg/kg/day.

What about the TD50 (rat, strain Sprague-Dawley Spartan, females, in feed, site: liver, lesion: hepatocellular carcinoma, dosed 103 weeks, study length 103 weeks) of the same compound?
Its TD50 is 6.51e-05 mg/kg/day.

What about the TD50 (rat, strain Sprague-Dawley Spartan, females, in feed, site: liver, lesion: hepatocellular hyperplastic nodule, dosed 103 weeks, study length 103 weeks) of the same compound?
The TD50 was 6.67e-06 mg/kg/day.

And the TD50 (rat, strain Sprague-Dawley Spartan, females, in feed, site: liver, lesion: several types, types named in the paper, dosed 103 weeks, study length 103 weeks)?
Its TD50 is 1.49e-05 mg/kg/day.

What about the TD50 (rat, strain Sprague-Dawley Spartan, females, in feed, site: lung, lesion: squamous-cell carcinoma, keratinized, dosed 103 weeks, study length 103 weeks) of the same compound?
Its TD50 is 0.000192 mg/kg/day.

What about the TD50 (rat, strain Sprague-Dawley Spartan, males, in feed, site: adrenal gland, lesion: cortical adenoma, dosed 103 weeks, study length 103 weeks) of the same compound?
The TD50 was 0.000217 mg/kg/day.

And the TD50 (rat, strain Sprague-Dawley Spartan, males, in feed, site: hard palate/nasal turbinates, lesion: squamous-cell carcinoma, stratified, dosed 103 weeks, study length 103 weeks)?
Its TD50 is 0.000393 mg/kg/day.

What about the TD50 (rat, strain Sprague-Dawley Spartan, males, in feed, site: tongue, lesion: squamous-cell carcinoma, stratified, dosed 103 weeks, study length 103 weeks) of the same compound?
The TD50 was 0.000628 mg/kg/day.

What about the TD50 (rat, strain Sprague-Dawley, males, in feed, site: liver, lesion: several types, types named in the paper, dosed 78 weeks, study length 95 weeks) of the same compound?
The TD50 was 8.31e-05 mg/kg/day.

What about the TD50 (rat, strain Sprague-Dawley, males, in feed, site: lung, lesion: squamous-cell tumor, dosed 78 weeks, study length 95 weeks) of the same compound?
The TD50 was 7.96e-05 mg/kg/day.
